“And” between values parts separate entries of the source, which are not always exact repeats. Equal values may be shown once.
Assays:
Type in all cases: cell-based
[1] = molecular target: T1, PPARγ (Homo sapiens, UniProt P37231); test: PPARγ transactivation activity (GAL4-hPPARγ LBD / UASx4-TK-LUC reporter in CV-1 cells); details: for PPARγ transactivation activity: a relative value (control = 100%): compound at 10^−5 M, CV-1 cells, Table 25; for Emax: CV-1, in the manner as described in Example 9, Table 26, read-out: PPARγ (PPAR activating power)
T1 construct: Receptor expression plasmid (GAL4-hPPARα, LBD GAL4-hPPARγ LBD, GAL4-hPPARδ LBD); expressed in transfected cells; host or cells: CV-1 cells
T1 sequence (P37231 238-503 limits assumed): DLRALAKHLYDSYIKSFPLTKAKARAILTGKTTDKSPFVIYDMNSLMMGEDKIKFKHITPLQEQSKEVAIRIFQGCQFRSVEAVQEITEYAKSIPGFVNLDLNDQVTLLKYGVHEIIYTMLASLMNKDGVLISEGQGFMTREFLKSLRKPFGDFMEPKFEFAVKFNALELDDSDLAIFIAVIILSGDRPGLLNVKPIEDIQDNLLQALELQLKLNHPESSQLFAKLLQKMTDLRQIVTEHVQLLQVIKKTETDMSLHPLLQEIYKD
Description: In the same manner, relative ligand activities to PPARδ and γ transactivation activitis are calculated (see the below-mentioned Example 9).
(§1) (1) Measurement of PPARα,γ,δ Transactivation Activity
(§2) PPARα,γ,δ transactivation activity of each compound [Examples 1-6 and known PPARδ agonist (L-16504: Berger, J., et al. (1999), J. Biol. Chem., 274:6718-6725)] was measured in the manner described below.
(§3) CV-1 was obtained from Tohoku University Aging Medical Laboratory, Medical Cell Collection Center. All test compounds were dissolved in dimethylsulfoxide (DMSO) to give a test sample of 0.1% concentration.
(§4) Receptor expression plasmid (GAL4-hPPARα, LBD GAL4-hPPARγ LBD, GAL4-hPPARδ LBD), Reporter plasmid (UASx4-TK-LUC), and β-galactosidase expression plasmid (βGAL) similar to Kliewer, S. A., et al., ((1992) Nature, 358:771-774) were employed.
(§5) CV-1 cells were seeded in 24 well culture plates at 2×10^5 cells per well, and cultured for 24 hours using 4%-fetal bovine serum(FBS)-added OPTI-MEM I Reduced Serum Medium (Life Technologies, 500 μL/well). Subsequently, the cells were washed with non serum-added OPTI-MEM. To the washed cells were added DNA-containing solution [the following components were contained in the one well solution (250 μl): 0.03 μg of GAL4-hPPARδ LBD, 0.25 μg of UASx4-TK-LUC, 0.35 μg of βGAL, and 2 μL of lipofection reagent, DMRIE-C (Life Technologies). These components were dissolved in OPTI-MEM and allowed to stand for 30 minutes at room temperature]. The cells were incubated for 5 hours at 37° C.
(§6) The cells were then incubated for 40 hours in 500 μL of fresh OPTI-MEM containing 4% FBS and the test compound (dissolved in 100% DMSO to reach a final concentration: 10^−4M or 10^−5M).
(§7) The culture medium was removed and the cells were washed with PBS twice. Cell lysates were produced using a solubilizing buffer (25 mM Tris-PO4 (pH 7.8), 15%v/v glycerol, 2% CHAPS, 1% Lecithin, 1% BSA, 4 mM EGTA (pH 8.0), 8 mM MgCl2, 1 mM DTT). A portion (20 μL) of the solution was transferred onto a 96-well plate. Subsequently, 100 μL of luciferase substrate solution (Piccagene: available from Nippon Gene Co., Ltd.) was added, and a luminous intensity per one sec. (luciferase activity) was measured by means of MLR-100 type Microluminoreader (available from Corona Electrics Co., Ltd.). Further, the activity caused by […] incorporation which was incorporated into the cells simultaneously with the incorporation of the luciferase gene was measured, for correcting variation of luciferase activity by the addition of the compound, utilizing the transfection efficiency of the incorporated gene. β-Galactosidase activity was measured by the following method: 50 μL of the solubilized sample was placed on another 96-well plate; 10 μL of ONPG (2-nitrophenyl-β-galactopyranoside) solution was added; incubation was carried out for 5 minutes at room temperature; 50 μL of a reaction stopping solution (1M sodium carbonate solution) was added; and the absorbance at 414 nm was measured.

[2] = molecular target: T2, PPARδ (Homo sapiens, UniProt Q03181); test: PPARδ transactivation activity (GAL4-hPPARδ LBD / UASx4-TK-LUC reporter in CV-1 cells); details: for activity to PPARδ relative to activity to PPARα and γ (selectivity): GAL4-hPPAR LBD reporter, relative activities vs control reagents; for PPARδ transactivation activity: a relative value (control = 100%): compound at 10^−5 M, Table 25; for Emax: CV-1, 40 h, in the manner as described in Example 9, Table 26, read-out: PPARδ (PPAR activating power)
T2 construct: A chimeric receptor expression plasmid (GAL4-hPPARδ LBD); expressed in transfected cells; host or cells: CV-1 cells
T2 sequence (Q03181 211-439 limits assumed): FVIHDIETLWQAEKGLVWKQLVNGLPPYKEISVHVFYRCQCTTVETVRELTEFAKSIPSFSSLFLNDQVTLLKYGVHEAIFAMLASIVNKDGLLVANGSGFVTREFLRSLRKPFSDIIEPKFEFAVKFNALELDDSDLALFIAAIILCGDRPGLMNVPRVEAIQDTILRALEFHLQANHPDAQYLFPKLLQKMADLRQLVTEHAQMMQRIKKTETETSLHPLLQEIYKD
Description: A chimeric receptor expression plasmid (GAL4-hPPARδ LBD), a reporter plasmid (UASx4-TK-LUC) and β-galactosidase (β-GAL) are transfected into CV-1 cells by utilizing a lipofection reagent DMRIE-C (Life Technologies).
as §1
CV-1 was obtained from Tohoku University Aging Medical Laboratory, Medical Cell Collection Center.
as §5, §6, §7

[3] = molecular target: T3, PPARα (Homo sapiens, UniProt Q07869); test: PPARα transactivation activity (GAL4-hPPARα LBD / UASx4-TK-LUC reporter in CV-1 cells); details: for PPARα transactivation activity: a relative value (control = 100%): CV-1 cells, Table 25; for Emax: CV-1, in the manner as described in Example 9, Table 26, read-out: PPARα (PPAR activating power)
T3 construct: Receptor expression plasmid (GAL4-hPPARα, LBD GAL4-hPPARγ LBD, GAL4-hPPARδ LBD); expressed in transfected cells; host or cells: CV-1 cells
T3 sequence (Q07869 239-466 limits assumed): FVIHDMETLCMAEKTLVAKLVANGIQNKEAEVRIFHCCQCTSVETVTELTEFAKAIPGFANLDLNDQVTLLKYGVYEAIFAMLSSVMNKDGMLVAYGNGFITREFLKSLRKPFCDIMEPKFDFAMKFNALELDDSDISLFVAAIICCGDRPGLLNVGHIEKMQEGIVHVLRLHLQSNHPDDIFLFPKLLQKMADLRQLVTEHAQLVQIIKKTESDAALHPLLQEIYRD
Description: as §1, §2, §3, §4, §5, §6, §7

PPARγ transactivation activity: a relative value (control = 100%) [1]	PPARδ transactivation activity: a relative value (control = 100%) ([2]; CV-1 cells)	PPARα transactivation activity: a relative value (control = 100%) ([3]; compound at 10^−5 M)	Emax [1]	Emax [2]	Emax [3]	SMILES	further results
27 ± 3%	80 ± 10%	9 ± 1%				CC(C)c1oc(-c2ccccc2Cl)nc1CCC(=O)c1ccc(OC(C)(C)C(=O)O)cc1 [Example 1, 2-[4-[3-[2-(2-Chlorophenyl)-5-isopropyl-4-oxazolyl]propionyl]phenyloxy]-2-methylpropionic acid]	activity to PPARδ relative to activity to PPARα and γ (selectivity) ([2]; CV-1 cells): selectively higher
51 ± 3%	93 ± 4%	75 ± 4%				CCCc1oc(-c2ccc(Cl)cc2)nc1CCC(=O)c1ccc(OC(C)(C)C(=O)O)cc1 [Example 2, 2-[4-[3-[2-(4-Chlorophenyl)-5-propyl-4-oxazolyl]propionyl]phenyloxy]-2-methylpropionic acid]	
16%	19%	10%				CC(C)c1oc(-c2ccccc2Cl)nc1CCC(=NO)c1ccc(OC(C)(C)C(=O)O)cc1 [Example 3, 2-[4-[3-[2-(2-Chlorophenyl)-5-isopropyl-4-oxazolyl](1-hydroxyimino)propyl]phenyloxy]-2-methyl-propionic acid]	
26%	23%	35%				CC(C)c1oc(-c2ccccc2Cl)nc1CCC(O)c1ccc(OC(C)(C)C(=O)O)cc1 (stereo not shown) [Example 4, 2-[4-[3-[2-(2-Chlorophenyl)-5-isopropyl-4-oxazolyl]-1-hydroxypropyl]phenyloxy]-2-methylpropionic acid]	
36 ± 3%	114 ± 1%	52 ± 7%				CC(C)c1oc(-c2ccccc2Cl)nc1CC=Cc1ccc(OC(C)(C)C(=O)O)cc1 [Example 5, 2-[4-[3-[2-(2-Chlorophenyl)-5-isopropyl-4-oxazolyl]-1-propenyl]phenyloxy]-2-methylpropionic acid]	activity to PPARδ relative to activity to PPARα and γ (selectivity) ([2]; CV-1 cells): selectively higher
93 ± 1%	109 ± 10%	98 ± 6%				CC(C)c1oc(-c2ccccc2Cl)nc1CCCc1ccc(OC(C)(C)C(=O)O)cc1 [Example 6, 2-[4-[3-[2-(2-Chlorophenyl)-5-isopropyl-4-oxazolyl]propyl]phenyloxy]-2-methylpropionic acid]	
			2%	58 ± 14%	1%	CCC(C)(Oc1ccc(C(=O)CCc2nc(-c3ccc(Cl)cc3Cl)oc2C(C)C)cc1)C(=O)O (stereo not shown) [Example 7-5, 2-[4-[3-[2-(2,4-Dichlorophenyl)-5-isopropyl-4-oxazolyl]propionyl]phenyloxy]-2-methylbutyric acid]	
			19%	96 ± 13%	8%	CC(C)c1oc(-c2cccc(Cl)c2Cl)nc1CCC(=O)c1ccc(OC(C)(C)C(=O)O)cc1 [Example 7-6, 2-[4-[3-[2-(2,3-Dichlorophenyl)-5-isopropyl-4-oxazolyl]propionyl]phenyloxy]-2-methylpropionic acid]	PPARδ activating effect (transactivation activity) as compared with L-165041 ([2]; CV-1 cells, GAL4-hPPARδ LBD, 40 hours incubation, luciferase activity with 10^-4 M L-165041 set to 100%): same or higher
			26%	58%	1%	CC(C)c1oc(-c2ccc(-c3ccccc3)cc2)nc1CCC(=O)c1ccc(OC(C)(C)C(=O)O)cc1 [Example 7-8, 2-[4-[3-[2-(4-Biphenylyl)-5-isopropyl-4-oxazolyl]-propionyl]phenyloxy]-2-methylpropionic acid]	
			5 ± 1%	80 ± 5%	8%	CC(C)c1oc(-c2ccc3ccccc3c2O)nc1CCC(=O)c1ccc(OC(C)(C)C(=O)O)cc1 [Example 7-9, 2-[4-[3-[2-(1-Hydroxy-2-naphthyl)-5-isopropyl-4-oxazolyl]propionyl]phenyloxy]-2-methylpropionic acid]	
			1%	70%	3%	CC(C)c1oc(-c2ccc(Cl)cc2Cl)nc1CC=Cc1ccc(OC(C)(C)C(=O)O)cc1 [Example 7-10, 2-[4-[3-[2-(2,4-Dichlorophenyl)-5-isopropyl-4-oxazolyl]-1-propenyl]phenyloxy]-2-methylpropionic acid]	
			18 ± 4%	85 ± 1%	29 ± 3%	CC(C)c1oc(-c2cc3ccccc3cc2O)nc1CCC(=O)c1ccc(OC(C)(C)C(=O)O)cc1 [Example 7-11, 2-[4-[3-[2-(3-Hydroxy-2-naphthyl)-5-isopropyl-4-oxazolyl]propionyl]phenyloxy]-2-methylpropionic acid]	
			4%	79 ± 2%	8 ± 1%	CC(C)c1oc(-c2cccc(Cl)c2O)nc1CCC(=O)c1ccc(OC(C)(C)C(=O)O)cc1 [Example 7-12, 2-[4-[3-[2-(3-Chloro-2-hydroxyphenyl)-5-isopropyl-4-oxazolyl]propionyl]phenyloxy]-2-methylpropionic acid]	activity to PPARδ relative to activity to PPARα and γ (selectivity) ([2]; CV-1 cells): selectively higher
			3%	81%	1%	CC(C)c1oc(-c2ccc(Br)cc2Cl)nc1CCC(=O)c1ccc(OC(C)(C)C(=O)O)cc1 [Example 7-13, 2-[4-[3-[2-(4-Bromo-2-chlorophenyl)-5-isopropyl-4-oxazolyl]propionyl]phenyloxy]-2-methylpropionic acid]	
						Cc1nc(-c2ccc(C(F)(F)F)cc2)sc1CCC(=O)c1ccc(OC(C)(C)C(=O)O)cc1 [Example 8-1, 2-[4-[3-[2-[(4-Trifluoromethyl)phenyl]-4-methyl-5-thiazolyl]propionyl]phenyloxy]-2-methylpropionic acid]	PPARα transactivation activity: a relative value at 10^−5 M (control = 100%) ([3]; compound at 10^−5 M, control WY-14643 (10^−4M), Table 27): 129% and 126% and 120% and 166%
			1 ± 0.03%		2 ± 1%	CCCc1c(OCCCOc2ccc(OCC(=O)O)cc2)ccc(C(C)=O)c1O [Example L-165041, reference compound]	

— patent US6787552B2, “PPAR delta activators” (Nippon Chemiphar Co., Ltd., priority 2000, dated 2004)
